Laboratory results published in patent US20080160617A1, “AGENT FOR INDUCING EMBRYONIC STEM CELL TO ECTODERMAL CELL, METHOD FOR OBTAINING THE SAME, AND USE OF THE SAME” (KYOWA HAKKO KOGYO CO., LTD., priority 2001, published 2008).

Experiments:
embryonic stem cell = settings: cited from earlier work
ES cell EB5 [1] = experiment: Nerve differentiation of ES cell EB5 by solution recovered from PA6 cell with polyanion-containing Hanks' balanced salt solution (SDIA activity); format: cell-based, mouse; settings: 14 days
Procedure: ES cell EB5 (H. Niwa et al., Nature Genet., 24, 372 (2000); obtained from Dr. Hitoshi Niwa at the Molecular Control Medical Science Course, Medical School, Osaka University) was used as the embryonic stem cell, and an MC3T3-G2/PA6 cell (H. Kodama et al., J. Cell Physiol., 112) 89 (1982), hereinafter referred to as “PA6 cell”) as the stromal cell, and the ES cell EB5 was cultured in accordance with the method described in Reference Example 1 and used in the test.
Cells of PA6 cultured to almost confluent state on a dish of 10 cm in diameter were washed twice with 10 ml of PBS(−) (manufactured by Invitrogen) and once with 10 ml of Hanks' balanced salt solution (manufactured by Invitrogen), 3 ml of Hanks' balanced salt solution containing from 0.001% (w/v) to 0.1% (w/v) of heparin (manufactured by Nacalai Tesque) was added thereto, the mixture was allowed to stand at 37° C. for 30 minutes, and the solution was recovered. The solution obtained was added to the PA6 on the 10 cm, dish washed in the same manner described above, the mixture was allowed to stand at 37° C. for 30 minutes in the same manner, and then the solution was recovered. This process was carried out on PA6 on the other 10 cm dish, and effect of the recovered solution ES cell was examined. In this case, a solution recovered in the same manner by using a heparin-free Hanks' balanced salt solution was used as a negative control.
The solution obtained in the above was mixed at a ratio of 1:2 with a solution containing the ES cell EB5 which had been adjusted to a single cell state in a serum-free medium by the method described in Reference Example 1, and the mixture was inoculated into a gelatin-coated plastic culture dish at a cell density of 1,250 cells/cm^2 and incubated at 37° C. for 14 days in a CO2 incubator in an atmosphere of 5% carbon dioxide.
The cells after the culturing were fixed by 4% paraformaldehyde solution and subjected to immune staining in accordance with the method described in Using Antibodies, Cold Spring Harbor Laboratory Press (1999), using an anti-NCAM antibody (manufactured by Chemicon) as a general nerve marker, an anti-class III β-tubulin antibody (manufactured by Babco) as a nerve-specific marker and an anti-nestin antibody (manufactured by Pharmingen) as a nerve precursor cell-specific marker.
Compounds other than heparin with which the SDIA activity factor can be recovered were searched by the method for recovering an SDIA activity factor described in Example 1. Using a Hanks' balanced salt solution containing, instead of heparin, 0.001% (w/v) dextran sulfate (manufactured by Sigma), 0.001% (w/v) polyvinyl sulfate (manufactured by Sigma), 0.001% (w/v) polystyrene sulfonate (manufactured by Tosoh) 0.1% (w/v) carboxymethylcellulose (manufactured by, Wako Pure Chemical Industries) or 0.1% (w/v) hyaluronic acid (manufactured by Kibun Chemical Foods), respective solutions were recovered by the method described in Example 1 to examine their effects on the ES cell. In this case, a solution recovered in the same manner by using a heparin-free Hanks' balanced salt solution was used as a negative control.

ES cell EB5 [2] = experiment: Heparin treatment of PA6 feeder cell before paraformaldehyde fixation, nerve differentiation of ES cell EB5; format: cell-based, mouse; settings: PA6 cell cultured 2 days in medium containing 200 ng/ml heparin, then paraformaldehyde-fixed; 8 days coculture
Procedure: According to the method described in Reference Example 3, the ES cell EB5 was cultured for 8 days in the serum-free medium without BMP4 by using the paraformaldehyde-fixed PA6 cell as a feeder cell. Also, the case when the PA6 cell was cultured in a medium containing heparin (GIBCO BRL) (hereinafter referred to as “heparin treatment”) was compared with the case when culturing in a heparin-free medium. That is, dishes in which the PA6 cell proliferated to almost confluent on a 3 cm tissue culture dish was cultured for 2 days in a medium containing 200 ng/ml of heparin and dishes in which it was cultured for 2 days in a heparin-free medium were prepared, washed twice with PBS(−) and subjected to paraformaldehyde fixation, and the ES cell EB5 was inoculated onto the paraformaldehyde-fixed PA6 cell at a density of 200 cells/dish, the medium was exchanged with a fresh medium on the 4th, 6th and 7th days, and then the cells were cultured at 37° C. for 8 days in a stream of 5% carbon dioxide in a CO2 incubator.
Eight days after coculturing, the cells were fixed according to the method described in Reference Example 1, and the colonies formed as a result of the coculturing of the ES cell EB5 with PA6 cell were immunologically stained with the anti-NCAM antibody, anti-tubulin antibody and anti-nestin antibody.

[3] = solution recovered from PA6 cell with Hanks' solution containing 0.1% (w/v) polyanion instead of heparin
[4] = solution recovered from PA6 cell with Hanks' solution containing 0.001% (w/v) polyanion instead of heparin

## EGF: epidermal growth factor
Embryonic stem cell
  SDIA-like activity to induce differentiation of embryonic stem cell into ectoderm system cells: no SDIA-like activity

## HGF: hepatocyte growth factor
Embryonic stem cell
  SDIA-like activity to induce differentiation of embryonic stem cell into ectoderm system cells: no SDIA-like activity

## LIF: leukemia inhibitory factor
Embryonic stem cell
  SDIA-like activity to induce differentiation of embryonic stem cell into ectoderm system cells: no SDIA-like activity

## PDGF
Embryonic stem cell
  SDIA-like activity to induce differentiation of embryonic stem cell into ectoderm system cells: no SDIA-like activity

## bFGF: basic fibroblast growth factor
Embryonic stem cell
  SDIA-like activity to induce differentiation of embryonic stem cell into ectoderm system cells: no SDIA-like activity

## carboxymethylcellulose
ES cell EB5 [1]; [3]
  ratio of colonies expressing class III β-tubulin: 34.6%

## dextran sulfate
ES cell EB5 [1]; [4]
  ratio of colonies expressing class III β-tubulin: 67.2%

## heparin
ES cell EB5 [1]; solution recovered from PA6 cell with Hanks' balanced salt solution containing 0.001% (w/v) heparin, mixed 1:2 with ES cell EB5
  ratio of colonies expressing class III β-tubulin: 68%
ES cell EB5 [2]
  differentiation of ES cell into nerve cell on heparin-treated PA6 feeder cell: significant differentiation of ES cell into nerve cell was not observed

## hyaluronic acid
ES cell EB5 [1]; [3]
  ratio of colonies expressing class III β-tubulin: 19.8%

## polystyrene sulfonate
ES cell EB5 [1]; [4]
  ratio of colonies expressing class III β-tubulin: 48.7%

## polyvinyl sulfate
ES cell EB5 [1]; [4]
  ratio of colonies expressing class III β-tubulin: 54.8%
